Assay [1] has as its system Botryotinia fuckeliana (Botrytis cinerea). The experiment in a line: Example B2: Botryotinia fuckeliana (Botrytis cinerea)/Liquid Culture (Gray Mould). As to conditions: liquid culture, growth inhibition photometrically 3 to 4 days after application, read-out: control of Botryotinia fuckeliana. It is filed as cell-based. As to the method:
Example B2: Botryotinia fuceliana (Botrytis cinerea)/Liquid Culture (Gray Mould)
Conidia of the fungus from cryogenic storage are directly mixed into nutrient broth (Vogels broth). After placing a (DMSO) solution of test compound into a microtiter plate (96-well format), the nutrient broth containing the fungal spores is added. The test plates are incubated at 24° C. and the inhibition of growth is determined photometrically 3 to 4 days after application.

Assay [2] has as its system Plasmopara viticola. It is filed as in vivo. As to conditions: 200 ppm; grape vine leaf disks, preventative, inoculated 1 day after application.
The test system of assay [3] is Phaeosphaeria nodorum (Septoria nodorum). The experiment in a line: Example B11: Phaeosphaeria nodorum (Septoria nodorum)/Wheat/Leaf Disc Preventative (Glume Blotch). As to conditions: Parastagonospora nodorum, foliar, wheat leaf segments, inoculated 2 days after application. It is filed as in vivo. As to the method: Example B11: Phaeosphaeria nodorum (Septoria nodorum)/Wheat/Leaf Disc Preventative (Glume Blotch)
Wheat leaf segments cv. Kanzler are placed on agar in a multiwell plate (24-well format) and sprayed with the formulated test compound diluted in water. The leaf disks are inoculated with a spore suspension of the fungus 2 days after application. The inoculated test leaf disks are incubated at 20° C. and 75% rh under a light regime of 12 h light/12 h darkness in a climate cabinet and the activity of a compound is assessed as percent disease control compared to untreated when an appropriate level of disease damage appears in untreated check leaf disks (5-7 days after application).

Assay [4] relates to Mycosphaerella graminicola (Septoria tritici). The assay is described as follows: Example B21: Mycosphaerella graminicola (Septoria tritici)/Liquid Culture (Septoria Blotch). It is filed as cell-based. As to conditions: Zymoseptoria tritici, liquid culture, photometrically 4-5 days after application, read-out: control of Mycosphaerella graminicola. As for the experimental part: Example B21: Mycosphaerella graminicola (Septoria tritici)/Liquid Culture (Septoria Blotch)
Conidia of the fungus from cryogenic storage are directly mixed into nutrient broth (PDB potato dextrose broth). After placing a (DMSO) solution of test compound into a microtiter plate (96-well format), the nutrient broth containing the fungal spores is added. The test plates are incubated at 24° C. and the inhibition of growth is determined photometrically 4-5 days after application.

For assay [5], the system named is Mycosphaerella arachidis (Cercospora arachidicola). The experiment in a line: Example B13: Mycosphaerella arachidis (Cercospora arachidicola)/Liquid Culture (Early Leaf Spot). It is filed as cell-based. As to conditions: liquid culture, photometrically 4 to 5 days after application, read-out: control of Mycosphaerella arachidis. As for the experimental part:
Example B13: Mycosphaerella arachidis (Cercospora arachidicola)/Liquid Culture (Early Leaf Spot)
(§1) Conidia of the fungus from cryogenic storage are directly mixed into nutrient broth (PDB potato dextrose broth). After placing a (DMSO) solution of test compound into a microtiter plate (96-well format), the nutrient broth containing the fungal spores is added. The test plates are incubated at 24° C. and the inhibition of growth is determined photometrically 4 to 5 days after application.

Assay [6] concerns Monographella nivalis (Microdochium nivale). The experiment in a line: Example B12: Monographella nivalis (Microdochium nivale)/Liquid Culture (Foot Rot Cereals). It is filed as cell-based. The note with it: liquid culture, photometrically 4 to 5 days after application, read-out: control of Monographella nivalis. As to the method:
Example B12: Monographella nivalis (Microdochium nivale)/Liquid Culture (Foot Rot Cereals)
as §1

A short description of assay [7]: Comparison of fungicidal activity of the separated stereoisomers (peaks 1 to 4). As to conditions: SFC-separated stereoisomers of Example P3.
In assay [8] the test system is Fusarium culmorum. It is filed as in vivo. As to conditions: 200 ppm; wheat spikelets, preventative, inoculated 1 day after application.
Assay [9] deals with Glomerella lagenarium (Colletotrichum lagenarium). The experiment in a line: Example B5: Glomerella lagenarium (Colletotrichum lagenarium)/Liquid Culture (Anthracnose). As to conditions: Colletotrichum orbiculare, liquid culture, photometrically 3 to 4 days after application, read-out: control of Glomerella lagenarium. It is filed as cell-based. As to the method: Example B5: Glomerella lagenarium (Colletotrichum lagenarium)/Liquid Culture (Anthracnose)
Conidia of the fungus from cryogenic storage are directly mixed into nutrient broth (PDB potato dextrose broth). After placing a (DMSO) solution of test compound into a microtiter plate (96-well format), the nutrient broth containing the fungal spores is added. The test plates are incubated at 24° C. and the inhibition of growth is measured photometrically 3 to 4 days after application.

The subject of assay [10] is Alternaria solani. The experiment in a line: Example B1: Alternaria solani/Tomato/Leaf Disc (Early Blight). It is filed as in vivo. The note with it: foliar, tomato leaf disks, inoculated 2 days after application, compared to untreated control. As to the method:
Example B1: Alternaria solani/Tomato/Leaf Disc (Early Blight)
Tomato leaf disks cv. Baby are placed on agar in multiwell plates (24-well format) and sprayed with the formulated test compound diluted in water. The leaf disks are inoculated with a spore suspension of the fungus 2 days after application. The inoculated leaf disks are incubated at 23° C./21° C. (day/night) and 80% rh under a light regime of 12/12 h (light/dark) in a climate cabinet and the activity of a compound is assessed as percent disease control compared to untreated when an appropriate level of disease damage appears on untreated check leaf disks (5-7 days after application).

For assay [11], the system named is Gibberella zeae (Fusarium graminearum). It is filed as in vivo. As to conditions: 200 ppm; wheat spikelets, preventative, inoculated one day after application.
The subject of assay [12] is Pyrenophora teres. The experiment in a line: Example B18: Pyrenophora teres/Barley/Leaf Disc Preventative (Net Blotch). It is filed as in vivo. As to conditions: foliar, barley leaf segments, inoculated 2 days after application. As for the experimental part:
Example B18: Pyrenophora teres/Barley/Leaf Disc Preventative (Net Blotch)
Barley leaf segments cv. Hasso are placed on agar in a multiwell plate (24-well format) and sprayed with the formulated test compound diluted in water. The leaf segments are inoculated with a spore suspension of the fungus 2 days after application. The inoculated leaf segments are incubated at 20° C. and 65% rh under a light regime of 12 h light/12 h darkness in a climate cabinet and the activity of a compound is assessed as disease control compared to untreated when an appropriate level of disease damage appears in untreated check leaf segments (5-7 days after application).

Assay [13] has as its system Magnaporthe grisea (Pyricularia oryzae). It is filed as in vivo. As to conditions: 200 ppm; rice leaf segments, preventative, inoculated 2 days after application.
The subject of assay [14] is Thanatephorus cucumeris (Rhizoctonia solani). The experiment in a line: Example B19: Thanatephorus cucumeris (Rhizoctonia solani)/Liquid Culture (Foot Rot, Damping-Off). It is filed as cell-based. As to conditions: 20 ppm; liquid culture, photometrically 3-4 days after application. As for the experimental part:
Example B19: Thanatephorus cucumeris (Rhizoctonia solani)/Liquid Culture (Foot Rot, Damping-Off)
Mycelia fragments of a newly grown liquid culture of the fungus are directly mixed into nutrient broth (PDB potato dextrose broth). After placing a (DMSO) solution of the test compounds into a microtiter plate (96-well format), the nutrient broth containing the fungal material is added. The test plates are incubated at 24° C. and the inhibition of growth is determined photometrically 3-4 days after application.

For assay [15], the system named is Puccinia recondita f. sp. tritici. The experiment in a line: Example B16: Puccinia recondita f. sp. tritici/Wheat/Leaf Disc Preventative (Brown Rust). It is filed as in vivo. The note with it: 200 ppm, wheat leaf segments, inoculated 1 day after application. As to the method:
Example B16: Puccinia recondita f. sp. tritici/Wheat/Leaf Disc Preventative (Brown Rust)
Wheat leaf segments cv. Kanzler are placed on agar in multiwell plates (24-well format) and sprayed with the formulated test compound diluted in water. The leaf disks are inoculated with a spore suspension of the fungus 1 day after application. The inoculated leaf segments are incubated at 19° C. and 75% rh under a light regime of 12 h light/12 h darkness in a climate cabinet and the activity of a compound is assessed as percent disease control compared to untreated when an appropriate level of disease damage appears in untreated check leaf segments (7-9 days after application).

As usually defined, the pest or weed control is the degree to which the test organism was suppressed or injured, in per cent. The low end stands for weak suppression, the high end for strong suppression. As to `Cn1cc(C2CN(C(=O)c3noc(-c4ccccc4)n3)Cc3ccccc32)cn1` (centres unmarked) [X.17, [4-(1-methylpyrazol-4-yl)-3,4-dihydro-1H-isoquinolin-2-yl]-(5-phenyl-1,2,4-oxadiazol-3-yl)methanone], the inhibition of growth at 20 ppm in assay [1], in assay [4], in assay [5] and in [6] was at least 80% throughout. In addition, in [2], the “control of Plasmopara viticola” value was “at least 80%”. In assay [3], this molecule showed a pest or weed control at 200 ppm of at least 80%.
On to `C[C@@H]1c2ccccc2[C@@](C)(c2cnn(C)c2)CN1C(=O)c1cc(-c2ccc(F)cc2F)on1` (single isomer, unassigned) [peak 1], for which the “fungicidal activity compared with the other enantiomer” value in assay [7] is reported as “more fungicidally active than the compound of peak 2”.
For the molecule `C[C@H]1c2ccccc2[C@@](C)(c2cnn(C)c2)CN1C(=O)c1cc(-c2ccc(F)cc2F)on1` (single isomer, unassigned) [X.22], the “fungicidal activity compared with the other enantiomer” value in assay [7] is given as “more fungicidally active than the compound of peak 3”.
Take `Cc1c([C@H]2CN(C(=O)c3cc(-c4ncc(F)cc4F)on3)[C@@H](C)c3ccccc32)cnn1C` (racemic) [X.21, [5-(3,5-difluoro-2-pyridyl)isoxazol-3-yl]-[rac-(1S,4S)-4-(1,5-dimethylpyrazol-4-yl)-1-methyl-3,4-dihydro-1H-isoquinolin-2-yl]methanone]: the “control of Fusarium culmorum” value in assay [8] is given as “at least 80%”. In addition, the inhibition of growth at 20 ppm in assay [1], in assay [9], in [4], in assay [5] and in [6] was at least 80% in each case. Also, the pest or weed control at 200 ppm in assay [3], in assay [10] and in [12] was at least 80% in each case. For the same molecule, the “control of Gibberella zeae” value in [11] is listed as “at least 80%”.
Consider `Cn1cc([C@]2(C)CN(C(=O)c3nnc(-c4ccc(F)cc4F)s3)Cc3ccccc32)cn1` [X.06, [5-(2,4-difluorophenyl)-1,3,4-thiadiazol-2-yl]-[(4R)-4-methyl-4-(1-methylpyrazol-4-yl)-1,3-dihydroisoquinolin-2-yl]methanone], for which the inhibition of growth at 20 ppm in assay [1], in [9], in assay [4], in assay [5] and in assay [6] was at least 80% each time. Besides, the pest or weed control at 200 ppm in assay [3] and in assay [12] was at least 80% in each case.
Turning to `Cn1ncc(C2CN(C(=O)c3cc(-c4ccc(F)cc4F)on3)Cc3ccccc32)c1F` (centres unmarked) [X.12, [5-(2,4-difluorophenyl)isoxazol-3-yl]-[4-(5-fluoro-1-methyl-pyrazol-4-yl)-3,4-dihydro-1H-isoquinolin-2-yl]methanone], the inhibition of growth at 20 ppm in assay [1], in assay [9], in [4], in assay [5] and in assay [6] was at least 80% in each case. Moreover, the pest or weed control at 200 ppm in assay [3] and in assay [12] was at least 80% throughout.
Turning to `Cc1c(C2CN(C(=O)c3nc(-c4ccc(F)cc4F)no3)Cc3ccccc32)cnn1C` (centres unmarked) [X.02, [3-(2,4-difluorophenyl)-1,2,4-oxadiazol-5-yl]-[4-(1,5-dimethylpyrazol-4-yl)-3,4-dihydro-1H-isoquinolin-2-yl]methanone], the inhibition of growth at 20 ppm in [1], in assay [9], in [4], in assay [5] and in assay [6] was at least 80% throughout. The pest or weed control at 200 ppm in [3] and in [10] was at least 80% each time.
Consider `Cc1c(C2CN(C(=O)c3cc(-c4ccc(F)cc4F)on3)Cc3ccccc32)cnn1C` (centres unmarked) [X.16, [5-(2,4-difluorophenyl)isoxazol-3-yl]-[4-(1,5-dimethylpyrazol-4-yl)-3,4-dihydro-1H-isoquinolin-2-yl]methanone], for which the inhibition of growth at 20 ppm in assay [1], in assay [9], in [4], in [5] and in assay [6] was at least 80% throughout. The pest or weed control at 200 ppm in [3] and in [12] was at least 80% throughout. Moreover, the “control of Magnaporthe grisea” value in [13] was “at least 80%”. Also, in [14], the “control of Thanatephorus cucumeris” value is listed as “at least 80%”. Further, the “control of Puccinia recondita f. sp. tritici” value in [15] is “at least 80%”.
`Cn1ncc(C2CN(C(=O)c3cc(-c4ccc(F)cc4F)on3)Cc3ccccc32)c1Cl` (centres unmarked) [X.11, [4-(5-chloro-1-methyl-pyrazol-4-yl)-3,4-dihydro-1H-isoquinolin-2-yl]-[5-(2,4-difluorophenyl)isoxazol-3-yl]methanone]: the inhibition of growth at 20 ppm in assay [1], in assay [9], in [4], in [5] and in assay [6] was at least 80% in each case. For the same molecule, the pest or weed control at 200 ppm in [3] and in [12] was at least 80% in each case.

The values are drawn from patent publication US20260198498A1, “FUNGICIDAL COMPOSITIONS” (SYNGENTA CROP PROTECTION AG, priority 2022, published 2026).
